Key:
Jurkat cells = assay: Apoptosis of Jurkat cells, annexin V staining and flow cytometry; format: cell-based, human
Method: (§1) FIG. 2 LAQ824 induces accumulation in the G1 phase of the cell cycle and apoptosis. SKW 6.4 (A) and Jurkat (B) cells were treated with the indicated concentration of LAQ824 for 24 hours. Following this, the cell cycle status and the percentage of apoptotic cells were determined by flow cytometry. Values represent mean±SE of 3 experiments. FIG. 8 Treatment LAQ824 enhances Apo-2L/TRAIL induced DISC assembly, DISC activity and apoptosis. A. SKW 6.4 and B. Jurkat cells were treated with LAQ824 and/or Apo-2L/TRAIL at the indicated doses for 24 hours. Following this, the percentage of apoptotic cells was determined by annexin-V staining followed by flow cytometry. Values represent mean±SE of 3 experiments. C. Following treatment of Jurkat cells with LAQ824 (20 nM) and/or Apo-2L/TRAIL (10 ng/ml) for 24 hours, either the total cell lysates were utilized for immunoblot analyses of caspase-8, BID, caspase-3 and PARP, or the cytosolic (S100) fractions of cells were either used for immunoblot analysis of cytochrome (cyt) c, Omi or Smac (D), β-Actin expression was used as the loading control. E. SKW 6.4 cells were treated with 100 nM LAQ824 for 24 hours or 100 ng/ml Apo-2L/TRAIL for 2 hours, or LAQ824 followed by Apo-2L/TRAIL. […]

DR5 = assay: Cell-membrane expression of DR5 in primary AML cells, anti-DR5 staining and flow cytometry; format: cell-based, human; conditions: primary AML sample, baseline 17.5%
Method: FIG. 11 LAQ824 induces histone acetylation, increases DR4 and DR5 levels, as well as down regulates FLIPS and FLIPL in primary AML cells. A. AML cells were treated with LAQ824 at the indicated concentrations for 24 hours. Following this histone protein were isolated, and the Histone H3 acetylation was detected by Western blot analysis using the anti-acetylated Histone H3 antibody. Total cell lysates of the untreated and LAQ824 treated cells were also used for immunoblot analyses of DR5, DR4, FLIPL and FLIPS. β-actin was used as the loading control. B. Bone marrow mononuclear cells from a patient with AML were exposed to 100 or 250 nM of LAQ824 for 24 hours. Following this, cell-membrane expression of DR5 was determined by staining with anti-DR5 antibody and evaluated by flow cytometry. Flow cytometric histograms in panels a to d are from cells treated with: a. Isotype control, b. untreated control cells, c. 100 nM LAQ824 and d. 250 nM LAQ824.
The sensitivity of fresh AML cells procured from patients with relapsed AML to Apo-2L/TRAIL and/or LAQ824-induced apoptosis was next to be determined. […] In every sample evaluated, co-treatment with LAQ824 and Apo-2L/TRAIL induced more apoptosis than treatment with either agent alone. […] Based on the availability adequate sample, we also determined the effect of LAQ824 on the determinants of Apo-2L/TRAIL-induced DISC.

DR4 mRNA = assay: Multi-probe RNase protection assay, DR4 mRNA; format: cell-based, human; conditions: only in SKW 6.4 cells, 100 nM LAQ824, 8 or 16 hours
Method: (§2) FIG. 6 Treatment with LAQ824 increases the mRNA expression of DR4 and DR5, and increases the association of the DR5 gene with the acetylated histone H3 and H4 in chromatin. A. After exposure of SKW 6.4 and Jurkat cells to 100 nM LAQ824 for the indicated time intervals (hours), mRNA expression levels of the indicated genes were determined using a Riboquant Multi-Probe RNase Protection Assay. B. Soluble chromatin was immunoprecipitated with anti-acetylated histone H3 and H4 antibodies. PCR primers for the DR5 promoter were used to amplify the DNA isolated from the immunoprecipitates. PCR products were scanned and quantified. […] The ratio between input DNA and precipitated DNA was calculated for each treatment.
(§3) A RiboQuant Multi-Probe RNase Protection Assay System was used according to the manufacturer's instructions (BD/PharMingen, San Diego, Calif.), and as previously described. […] The remaining probes were resolved on 5% denaturing polyacrylamide gel and analyzed by autoradiography.
(§4) Next, the effect of LAQ824 on the mRNA levels of c-FLIPL, DR5, DR4 and Apo-2L/TRAI, utilizing a multi-probe RNAse protection assay and estimated by densitometry with GAPDH mRNA as the loading control was determined. […] In contrast to the increase in the DR5 and DR4 mRNA levels, exposure to LAQ824 for eight hours inhibited the mRNA level of c-FLIPL by 75%, as determined by an RT-PCR assay (FIG. 7A). […]

FAS mRNA = assay: Multi-probe RNase protection assay, FAS mRNA; format: cell-based, human; conditions: SKW 6.4 and Jurkat cells, 100 nM LAQ824, 8 or 16 hours; densitometry, GAPDH mRNA as loading control
Method: as §2, §3, §4

DR5 mRNA = assay: Multi-probe RNase protection assay, DR5 mRNA; format: cell-based, human; conditions: SKW 6.4 and Jurkat cells, 100 nM LAQ824, 8 or 16 hours; densitometry, GAPDH mRNA as loading control
Method: as §2, §3, §4

[1] = system: HDAC activity in the HeLa cell nuclear extracts; conditions: LAQ824 5 to 250 nM, previously reported; cited from earlier work
SKW 6.4 cells = assay: Apoptosis of SKW 6.4 cells, annexin V staining and flow cytometry; format: cell-based, human; conditions: 10 to 200 nM LAQ824, 24 hours, less than in Jurkat
Method: as §1

For `O=C(/C=C/c1ccc(CN(CCO)CCc2c[nH]c3ccccc23)cc1)NO` [LAQ824], which “apoptosis, % of Jurkat cells” value (Jurkat cells; 100 or 200 nM LAQ824, 24 hours, data not shown) is on record?
The value was “more than 90%”.

What about the “induction of apoptosis (annexin V positive)” value (Jurkat cells; Jurkat cells, 10 to 200 nM LAQ824, 24 hours, more than in SKW 6.4) of the same compound?
The value was “induced apoptosis in a dose dependent manner”.

What about the “DR5 expression on the cell membrane, % of cells” value (DR5; 100 nM LAQ824, 24 hours) of the same compound?
The value was 33.2%.

What about the “DR5 expression on the cell membrane, % of cells” value (DR5; 250 nM LAQ824, 24 hours) of the same compound?
Its value is 62.4%.

What about the “increase of DR4 mRNA levels” value (DR4 mRNA) of the same compound?
The value was 2.2 fold.

What about the “increase of mRNA expression of FAS” value (FAS mRNA) of the same compound?
Its value is 1.5 fold.

And the “increase of mRNA expression of DR5” value (DR5 mRNA)?
The value was 2.4 fold.

And the “in vitro HDAC activity” value [1]?
Its value is “inhibits the in vitro HDAC activity in a dose dependent manner”.

And the “induction of apoptosis (annexin V positive)” value (SKW 6.4 cells)?
The value was “induced apoptosis in a dose dependent manner”.

From patent US20070207119A1, “Histone deacetylase inhibitor enhancement of trail-induced apoptosis” (University of South Florida, priority 2002, published 2007)
